This assay deals with T1, human FPTase (Homo sapiens, UniProt P49354+P49356).
T1 construct: made in house
The assay is described as follows: In vitro inhibition of ras farnesyl transferase (human FPTase assay). In kind it is biochemical. Here is the method:
Assays of farnesyl-protein transferase. […] Reactions were initiated with FPTase and stopped with 1 ml of 1.0 M HCL in ethanol. Precipitates were collected onto filter-mats using a TomTec Mach HI cell harvester, washed with 100% ethanol, dried and counted in an LKB β-plate counter. […] Purified compounds were dissolved in 100% dimethyl sulfoxide (DMSO) and were diluted 20-fold into the assay. Percentage inhibition is measured by the amount of incorporation of radioactivity in the presence of the test compound when compared to the amount of incorporation in the absence of the test compound. […] Human FPTase activity was assayed as described above with the exception that 0.1% (w/v) polyethylene glycol 20,000, 10 μM ZnCl2 and 100 nM Ras-CVIM were added to the reaction mixture. Reactions were performed for 30 min., stopped with 100 μl of 30% (v/v) trichloroacetic acid (TCA) in ethanol and processed as described above for the bovine enzyme.

The structures appear in SMILES notation. Where a name gives a salt, the structure may show the parent alone. Read-outs that look alike come from different tables or passages of the source.

As usually defined, the IC50 is the concentration that inhibits the measured activity by half. `N#Cc1ccc(Cn2cncc2CN2CC(=O)N(c3ccccc3)CC2=O)cc1` [Example 4, 4-[1-(4-cyanobenzyl)-5-imidazolylmethyl]-1-phenylpiperazine-2,5-dione hydrochloride] yielded an IC50 not above 50 µM.

Take `N#Cc1ccc(Cn2cncc2CN2CC(=O)N(Cc3ccccc3)CC2=O)cc1` [Example 5, 4-benzyl-1-[1-(4-cyanobenzyl)-5-imidazolylmethyl]-piperazine-2,5-dione hydrochloride]: the IC50 (human FPTase, [3H]-FPP, 100 nM Ras-CVIM, 30 min, read-out: IC50, inhibitory activity against human FPTase) is not above 50 µM.
